Measurements: patent publication US20130116241A1, “NOVEL INHIBITOR COMPOUNDS OF PHOSPHODIESTERASE TYPE 10A” (AbbVie Inc., priority 2011, published 2013)
Where a name gives a salt, the structure may show the parent alone.

biological target: human PDE10A (UniProt Q9Y233); experiment: Measurement of PDE activity (recombinant enzyme, HTRF cAMP kit); format: biochemical; settings: Table 1, substrate 20 nM for PDE10, 60 minutes at 29 C, read-out: IC50
Procedure, shortened: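 Recombinant human PDE10A (10–250 pM range across PDEs) with 20 nM cAMP substrate in 20 mM Tris-HCl pH 7.5, 10 mM MgCl2, 0.1% BSA, compound pre-mixed with enzyme. Ran 60 min at 29 °C. Remaining cAMP read by HTRF, converted to % of uninhibited activity, and IC50 fitted.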

Sequence of human PDE10A (Q9Y233 290-1055 limits assumed): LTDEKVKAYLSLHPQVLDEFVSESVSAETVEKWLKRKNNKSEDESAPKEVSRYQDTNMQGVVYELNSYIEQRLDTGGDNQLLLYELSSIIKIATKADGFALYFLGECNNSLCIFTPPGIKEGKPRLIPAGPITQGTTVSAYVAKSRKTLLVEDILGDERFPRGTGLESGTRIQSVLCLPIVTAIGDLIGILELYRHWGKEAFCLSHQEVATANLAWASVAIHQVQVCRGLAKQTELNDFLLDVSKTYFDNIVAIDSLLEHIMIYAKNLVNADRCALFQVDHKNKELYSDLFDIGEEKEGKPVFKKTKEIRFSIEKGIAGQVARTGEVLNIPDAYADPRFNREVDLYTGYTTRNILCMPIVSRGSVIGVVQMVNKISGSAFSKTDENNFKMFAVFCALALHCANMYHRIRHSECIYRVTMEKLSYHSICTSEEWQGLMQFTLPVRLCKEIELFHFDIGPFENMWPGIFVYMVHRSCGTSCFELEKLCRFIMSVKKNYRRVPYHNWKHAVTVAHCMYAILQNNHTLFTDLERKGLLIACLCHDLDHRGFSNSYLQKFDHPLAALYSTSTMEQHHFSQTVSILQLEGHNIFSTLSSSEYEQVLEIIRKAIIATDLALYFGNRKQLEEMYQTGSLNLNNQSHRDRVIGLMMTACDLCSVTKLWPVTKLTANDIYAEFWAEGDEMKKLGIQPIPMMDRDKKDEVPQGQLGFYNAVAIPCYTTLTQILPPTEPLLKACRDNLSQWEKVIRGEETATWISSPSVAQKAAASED

`Cn1cc(-c2nn(CCc3cn4ccccc4n3)c(=O)c3c(-c4ccncc4)csc23)cn1` [compound 303, 5-[2-(imidazo[1,2-a]pyridin-2-yl)ethyl]-7-(1-methyl-1H-pyrazol-4-yl)-3-(pyridin-4-yl)thieno[2,3-d]pyridazin-4(5H)-one] and `Cn1cnc(-c2nn(CCc3cn4ccccc4n3)c(=O)c3c(-c4ccncc4)csc23)c1` [compound 302, 5-[2-(imidazo[1,2-a]pyridin-2-yl)ethyl]-7-(1-methyl-1H-imidazol-4-yl)-3-(pyridin-4-yl)thieno[2,3-d]pyridazin-4(5H)-one] cannot be ordered by IC50: < 0.1 µM for the first, < 0.1 µM for the second.

First: N#Cc1cccc(-c2csc3cnn(CCc4ccc5ccccc5n4)c(=O)c23)c1 [Example 29, 3-[4-Oxo-5-(2-quinolin-2-yl-ethyl)-4,5-dihydro-thieno[2,3-d]pyridazin-3-yl}-benzonitrile]
Second: O=c1c2c(-c3cccc(F)c3)csc2cnn1CCc1ccc2ccccc2n1 [Example 30, 3-(3-fluorophenyl)-5-[2-(quinolin-2-yl)ethyl]thieno[2,3-d]pyridazin-4(5H)-one]
The IC50 of the first is lower: < 0.1 µM for the first, 0.1 to 0.2 µM for the second.

Compared with `O=c1c2c(NC3CCNCC3)cccc2cnn1CCc1cn2ccccc2n1` [compound 388, dihydrochloride], `CN1CC(Nc2cccc3cnn(CCc4cn5ccccc5n4)c(=O)c23)C1` [compound 385, 2-[2-(imidazo[1,2-a]pyridin-2-yl)ethyl]-8-[(1-methylazetidin-3-yl)amino]phthalazin-1(2H)-one] is higher in IC50: < 0.1 µM for the first, 0.2 to 0.5 µM for the second.

First: Cc1ccc(-c2csc3cnn(CCc4ccc5ccccc5n4)c(=O)c23)c(F)c1 [Example 90, 3-(2-fluoro-4-methylphenyl)-5-[2-(quinolin-2-yl)ethyl]thieno[2,3-d]pyridazin-4(5H)-one]
Second: O=c1c2c(-c3ccc(F)cc3)csc2cnn1CCc1ccc2ccccc2n1 [Example 12, 3-(4-fluorophenyl)-5-[2-(quinolin-2-yl)ethyl]thieno[2,3-d]pyridazin-4(5H)-one]
The IC50 of the first is higher: 0.2 to 0.5 µM for the first, < 0.1 µM for the second. The second is the more potent here.

Compared with `O=c1c2c(-c3ccc4[nH]ccc4c3)cccc2cnn1CCc1ccc2ccccc2n1` [Example 122, 8-(1H-Indol-5-yl)-2-[2-(quinolin-2-yl)ethyl]phthalazin-1(2H)-one], `COc1cccc(-c2cccc3cnn(CCc4ccc5ccccc5n4)c(=O)c23)c1` [Example 113, 8-(3-Methoxyphenyl)-2-[2-(quinolin-2-yl)ethyl]phthalazin-1(2H)-one] is lower in IC50: 0.2 to 0.5 µM for the first, 0.1 to 0.2 µM for the second. The second is the more potent here.

First: O=c1c2c(N3CCC[C@H](O)C3)cccc2cnn1CCc1cn2ccccc2n1 [compound 333]
Second: CC(=O)N1CCC(Nc2cccc3cnn(CCc4cn5ccccc5n4)c(=O)c23)CC1 [compound 390, 8-[(1-acetylpiperidin-4-yl)amino]-2-[2-(imidazo[1,2-a]pyridin-2-yl)ethyl]phthalazin-1(2H)-one]
The IC50 of the first is lower: < 0.1 µM for the first, 0.2 to 0.5 µM for the second.

`O=c1c2c(-c3ccnc(F)c3)csc2ccn1C1CC1c1ccc2cc(F)ccc2n1` (stereo not drawn) [compound 280] and `O=c1c2c(-c3cccnc3)csc2ccn1CCc1ccc2cc(F)ccc2n1` [compound 308, hydrochloride] cannot be ordered by IC50: < 0.1 µM for the first, < 0.1 µM for the second.

First: O=c1c2c(-c3ccc4ncccc4c3)csc2cnn1CCc1ccc2ccccc2n1 [Example 55, 3-(quinolin-6-yl)-5-[2-(quinolin-2-yl)ethyl]thieno[2,3-d]pyridazin-4(5H)-one]
Second: COc1ccc(-c2csc3cnn(CCc4ccc5ccccc5n4)c(=O)c23)cn1 [Example 49, 3-(6-methoxypyridin-3-yl)-5-[2-(quinolin-2-yl)ethyl]thieno[2,3-d]pyridazin-4(5H)-one]
The IC50 of the first is lower: < 0.1 µM for the first, 0.1 to 0.2 µM for the second.

`O=c1c2c(N3CCOCC3)cccc2ccn1C1CC1c1ccc2ccccc2n1` (stereo not drawn) [Example 246, anti 8-morpholino-2-(2-(quinolin-2-yl)cyclopropyl)isoquinolin-1(2H)-one] and `O=c1c2c(-c3ccc4c(c3)CCO4)csc2cnn1CCc1ccc2ccccc2n1` [Example 46, 3-(2,3-dihydrobenzofuran-5-yl)-5-(2-quinolin-2-yl-ethyl)-5H-thieno[2,3-d]pyridazin-4-one] cannot be ordered by IC50: < 0.1 µM for the first, < 0.1 µM for the second.
